Test results as given in patent US8455485B2, “Pyrazolo pyridine derivatives as NADPH oxidase inhibitors” (Genkyotex SA, priority 2008, dated 2013).

test system: NOX activity; experiment: Amplex Red measurement of extracellular hydrogen peroxide (NOX activity) using DMSO-differentiated HL60 cells; assay type: cell-based, human; conditions: Amplex red, DMSO-differentiated HL60 cells; compound concentration not stated
Procedure: Human acute myeloid leukemia cell line HL-60 was cultured in RPMI 1640 (Invitrogen) supplemented with 10% heat-inactivated calf serum, 2 mM glutamine, 100 U/mL penicillin (Sigma), and 100 μg streptomycin (Sigma) at 37° C. under a humidified atmosphere of 5% CO2. HL60 differentiation to the neutrophil phenotype was triggered by adding Me2SO (final concentration 1.25% v/v for 6 days) to the culture medium.
Extracellular hydrogen peroxide was measured using Amplex UltraRed (Molecular Probes). Cells were trypsinized (1× Trypsin-EDTA), collected by centrifugation, and resuspended in HBSS supplemented with 1% glucose. Cells were seeded into black 96-well plates at a density of 50′000 cells in 200 μl testing buffer (HBSS 1% glucose containing 0.005 U/mL horseradish peroxidase (Roche) and 50 μM Amplex Red in the presence or absence of compounds according to the invention. As a control, DPI was included at a final concentration of 10 μM The plates were placed in the fluorescent Optima Fluorescent plate reader and kept at 37° C. during 20 min Fluorescence was measured for […] with excitation and emission wavelengths of 544 nm and 590 nm respectively. NOX activities were expressed as % of the activity in control cells. Residual activity of DPI-treated cells was usually <10%.
The Table 2 below summarizes the percentage of inhibition of NOX activity as measured by Amplex red using DMSO-differentiated HL60 cells as described above: […]

Row | SMILES | Inhibition (%) of NOX activity [%]
1 | O=c1c2c(CN3CCOCC3)n(Cc3ccccc3)c(=O)cc2[nH]n1-c1ccccc1Cl [Compound 1, 5-benzyl-2-(2-chlorophenyl)-4-(morpholin-4-ylmethyl)-1H-pyrazolo[4,3-c]pyridine-3,6(2H,5H)-dione] | 80
2 | CCCCc1c2c(=O)n(C)[nH]c2cc(=O)n1Cc1ccccn1 [Compound 3, 4-butyl-2-methyl-5-(pyridin-2-ylmethyl)-1H-pyrazolo[4,3-c]pyridine-3,6(2H,5H)-dione] | 84
3 | CCCCc1c2c(=O)n(-c3ccc(OCc4ccccc4)cc3)[nH]c2cc(=O)n1Cc1ccc(Cl)cc1 [Compound 4, 2-[4-(benzyloxy)phenyl]-4-butyl-5-(4-chlorobenzyl)-1H-pyrazolo[4,3-c]pyridine-3,6(2H,5H)-dione] | 69
4 | CCCCc1c2c(=O)n(-c3ccc(OCc4ccccc4)cc3)[nH]c2cc(=O)n1C [Compound 5, 2-[4-(benzyloxy)phenyl]-4-butyl-5-methyl-1H-pyrazolo[4,3-c]pyridine-3,6(2H,5H)-dione] | 94
5 | CCCCc1c2c(=O)n(-c3ccc(F)cc3Cl)[nH]c2cc(=O)n1Cc1ccco1 [Compound 7, 4-butyl-2-(2-chloro-4-fluorophenyl)-5-(furan-2-ylmethyl)-1H-pyrazolo[4,3-c]pyridine-3,6(2H,5H)-dione] | 91
6 | CCCCc1c2c(=O)n(-c3ccc(F)cc3Cl)[nH]c2cc(=O)n1CCOC [Compound 9, 4-butyl-2-(2-chloro-4-fluorophenyl)-5-(2-methoxyethyl)-1H-pyrazolo[4,3-c]pyridine-3,6(2H,5H)-dione] | 76
7 | CCCCc1c2c(=O)n(-c3ccc(F)cc3Cl)[nH]c2cc(=O)n1CCc1ccccn1 [Compound 10, 4-butyl-2-(2-chloro-4-fluorophenyl)-5-(2-pyridin-2-ylethyl)-1H-pyrazolo[4,3-c]pyridine-3,6(2H,5H)-dione] | 78
8 | COCCCn1c(CN(C)Cc2ccccc2)c2c(=O)n(-c3ccc(F)cc3Cl)[nH]c2cc1=O [Compound 12, 4-{[benzyl(methyl)amino]methyl}-2-(2-chloro-4-fluorophenyl)-5-(3-methoxypropyl)-1H-pyrazolo[4,3-c]pyridine-3,6(2H,5H)-dione] | 79
9 | CCCCc1c2c(=O)n(-c3ccc(F)cc3Cl)[nH]c2cc(=O)n1Cc1ccccc1CN1CCOCC1 [Compound 14, 4-butyl-2-(2-chloro-4-fluorophenyl)-5-[2-(morpholin-4-ylmethyl)benzyl]-1H-pyrazolo[4,3-c]pyridine-3,6(2H,5H)-dione] | 86
10 | COCc1c2c(=O)n(-c3cccc(Cl)c3)[nH]c2cc(=O)n1Cc1ccccn1 [Compound 23, 2-(3-chlorophenyl)-4-(methoxymethyl)-5-(pyridin-2-ylmethyl)-1H-pyrazolo[4,3-c]pyridine-3,6(2H,5H)-dione] | 89
11 | Cn1[nH]c2cc(=O)n(Cc3ccccn3)c(CCCOc3ccccc3)c2c1=O [Compound 30, 2-methyl-4-(3-phenoxypropyl)-5-(pyridin-2-ylmethyl)-1H-pyrazolo [4,3-c]pyridine-3,6(2H,5H)-dione] | 92
12 | COCCn1c(CN2CCCC2)c2c(=O)n(Cc3ccccc3)[nH]c2cc1=O [Compound 31, 2-benzyl-5-(2-methoxyethyl)-4-(pyrrolidin-1-ylmethyl)-1H-pyrazolo [4,3-c]pyridine-3,6(2H,5H)-dione] | 82
13 | CCOCCCn1c(CN2CCCC2)c2c(=O)n(-c3ccc(F)cc3Cl)[nH]c2cc1=O [Compound 45, 2-(2-chloro-4-fluoro-phenyl)-5-(3-ethoxypropyl)-4-(pyrrolidin-1-ylmethyl)-1H-pyrazolo[4,3-c] pyridine-3,6(2H,5H)-dione] | 86
14 | CCOCCCn1c(CN2CCCC2)c2c(=O)n(Cc3ccccc3)[nH]c2cc1=O [Compound 47, 2-benzyl-5-(3-ethoxypropyl)-4-(pyrrolidin-1-ylmethyl)-1H-pyrazolo[4,3-c]pyridine-3,6(2H,5H)-dione] | 89
15 | Cn1[nH]c2cc(=O)n(Cc3ccc(Cl)cc3)c(CN3CCCC3)c2c1=O [Compound 52, 5-(4-chlorobenzyl)-2-methyl-4-(pyrrolidin-1-ylmethyl)-1H-pyrazolo[4,3-c]pyridine-3,6(2H,5H)-dione] | 90
16 | CC(=O)Nc1cccc(Cn2c(CN3CCCC3)c3c(=O)n(-c4ccc(OCc5ccccc5)cc4)[nH]c3cc2=O)c1 [Compound 53, N-[3-({2-[4-(benzyloxy)phenyl]-3,6-dioxo-4-(pyrrolidin-1-ylmethyl)-1,2,3,6-tetrahydro-5H-pyrazolo[4,3-c]pyridin-5-yl}methyl)phenyl] acetamide] | 86
17 | COCCn1c(COc2ccc(F)cc2)c2c(=O)n(-c3ccccc3Cl)[nH]c2cc1=O [Compound 58, 2-(2-chlorophenyl)-4-[(4-fluorophenoxy)methyl]-5-(2-methoxyethyl)-1H-pyrazolo[4,3-c]pyridine-3,6(2H,5H)-dione] | 80
18 | Cn1[nH]c2cc(=O)n(Cc3ccccn3)c(COCc3ccccc3)c2c1=O [Compound 63, 4-[(benzyloxy)methyl]-2-methyl-5-(pyridin-2-ylmethyl)-1H-pyrazolo [4,3-c]pyridine-3,6 (2H,5H)-dione] | 89
19 | Cn1[nH]c2cc(=O)n(Cc3cccc(N4CCOCC4)n3)c(COc3ccc(F)cc3)c2c1=O [Compound 65, 4-[(4-fluorophenoxy)methyl]-2-methyl-5-[(6-morpholin-4-ylpyridin-2-yl)methyl]-1H-pyrazolo[4,3-c] pyridine-3,6(2H,5H)-dione] | 80
20 | Cn1c(C2CN(Cc3ccccc3)CCO2)c2c(=O)n(-c3ccccc3Cl)[nH]c2cc1=O (stereo not drawn) [Compound 84, 4-(4-benzylmorpholin-2-yl)-2-(2-chloro-phenyl)-5-methyl-1H-pyrazolo [4,3-c]pyridine-3,6 (2H,5H)-dione] | 78
21 | Cn1c(COc2ccc(Cl)cc2)c2c(=O)n(-c3ccccc3Cl)[nH]c2cc1=O [Compound 92, 4-[(4-chlorophenoxy)methyl]-2-(2-chlorophenyl)-5-methyl-1H-pyrazolo[4,3-c] pyridine-3,6(2H,5H)-dione] | 76
22 | CN(Cc1c2c(=O)n(-c3ccccc3Cl)[nH]c2cc(=O)n1CCc1ccccn1)c1ccccc1 [Compound 93, 2-(2-chlorophenyl)-4-{[methyl(phenyl)amino]methyl}-5-(2-pyri-din-2-ylethyl)-1H-pyrazolo[4,3-c] pyridine-3,6(2H,5H)-dione] | 80
23 | CC(C)(C)OC(=O)N1CCC(Cn2c(COCc3ccccc3)c3c(=O)n(-c4ccccc4Cl)[nH]c3cc2=O)CC1 [Compound 100, tert-butyl 4-({4-[(benzyloxy)methyl]-2-(2-chlorophenyl)-3,6-dioxo-1,2,3,6-tetrahydro-5H-pyrazolo[4,3-c]pyri-din-5-yl}methyl)pipe-ridine-1-carboxylate] | 78
24 | CCN(CC)CCCn1c(COCc2ccccc2)c2c(=O)n(-c3ccccc3Cl)[nH]c2cc1=O [Compound 102, 4-[(benzyloxy)methyl]-2-(2-chlorophenyl)-5-[3-(diethylamino)propyl]-1H-pyrazolo[4,3-c] pyridine-3,6(2H,5H)-dione] | 80
25 | CN1CCC(Cn2c(COCc3ccccc3)c3c(=O)n(-c4ccccc4Cl)[nH]c3cc2=O)CC1 [Compound 106, 4-[(benzyloxy)methyl]-2-(2-chlorophenyl)-5-[(1-methylpiperidin-4-yl)methyl]-1H-pyrazolo [4,3-c]pyridine-3,6(2H,5H)-dione] | 81
26 | Cn1c(COC(c2ccccc2)C(F)(F)F)c2c(=O)n(-c3ccccc3Cl)[nH]c2cc1=O (stereo not drawn) [Compound 108, 2-(2-chlorophenyl)-5-methyl-4-[(2,2,2-trifluoro-1-phenylethoxy)methyl]-1H-pyrazolo[4,3-c] pyridine-3,6(2H,5H)-dione] | 75
27 | O=c1c2c(COCc3ccccc3)n(Cc3cnccn3)c(=O)cc2[nH]n1-c1ccccc1Cl [Compound 113, 4-[(benzyloxy)methyl]-2-(2-chlorophenyl)-5-(pyrazin-2-yl-methyl)-1H-pyrazolo[4,3-c]pyridine-3,6(2H,5H)-dione] | 87
28 | CN(C)C(=O)Cn1c(COCc2ccccc2)c2c(=O)n(-c3ccccc3Cl)[nH]c2cc1=O [Compound 116, 2-{4-[(benzyloxy)methyl]-2-(2-chlorophenyl)-3,6-dioxo-1,2,3,6-tetrahydro-5H-pyrazolo[4,3-c]pyridin-5-yl)-N,N dimethyl acetamide] | 81
29 | CN(CCCc1c2c(=O)n(-c3ccccc3Cl)[nH]c2cc(=O)n1C)c1ccccc1 [Compound 120, 2-(2-chlorophenyl)-5-methyl-4-{3-[methyl (phenyl)amino]propyl}-1H-pyrazolo[4,3-c] pyridine-3,6(2H,5H)-dione] | 77
30 | Cn1c(CCCN2CCc3ccccc32)c2c(=O)n(-c3ccccc3Cl)[nH]c2cc1=O [Compound 123, 2-(2-chloro-phenyl)-4-[3-(2,3-dihydro-1H-indol-1-yl)propyl]-5-methyl-1H-pyrazolo[4,3-c] pyridine-3,6(2H,5H)-dione] | 90
